How the values were obtained:
[1] = tested on: Sprague-Dawley rats; assay: in vivo toxicity test, intraperitoneal injection in Sprague-Dawley rats; settings: 10 mg, rats 240-250 g body weight
Procedure: (§1) The therapeutic use of C1' aminobiopterin is facilitated by its low toxicity, both in vitro and in vivo. A useful in vitro toxicity screen which is predictive of in vivo response was to use cultured 3T3 murine fibroblasts. […] In an in vivo test, intraperitoneal injection of a solution containing 10 mg of tetrahydroaminobiopterin (I) dihydrochloride caused no toxicity in Sprague-Dawley rats (240-250 g body weight).

[2] = target: rat neuronal nitric oxide synthase (Rattus norvegicus, UniProt P29476); assay: binding of tritiated tetrahydroaminobiopterin (Klatt et al.), affinity for rat neuronal nitric oxide synthase; settings: vs naturally occurring cofactor tetrahydrobiopterin
Procedure: These determinations are assayed with binding of tritiated tetrahydroaminobiopterin according to the method of Klatt et al., "The pteridine binding site of brain nitric oxide synthase," J.Biol.Chem., 269:13861-13866 (1994), the teachings of which are incorporated herein by reference.

[3] = target: inducible murine nitric oxide synthase (Mus musculus, UniProt P29477); assay: binding of tritiated tetrahydroaminobiopterin (Klatt et al.), affinity for inducible murine nitric oxide synthase; settings: vs naturally occurring cofactor tetrahydrobiopterin
[4] = target: T1, recombinant rat neuronal NO synthase (Rattus norvegicus, UniProt P29476); assay: NO synthase activity, formation of tritiated citrulline from tritiated L-arginine (rat neuronal); type: biochemical
T1 construct: made in house
Procedure: (§2) It has been discovered that C1' tetrahydroaminobiopterin inhibits the stimulation of NOSs by 10 μM tetrahydrobiopterin with an IC50 (50% inhibitory concentration) of 1 μM (rat neuronal NOS), or 7 μM (murine inducible NOS) as assayed by formation of tritiated citrulline from tritiated L-arginine according to Mayer, et al., "Molecular mechanisms of inhibition of porcine brain nitric oxide synthase by the antinociceptive drug 7-nitro-indazole," Neuropharmacology, 33:1253-1259 (1994), the teachings of which are incorporated herein by reference. In tissue culture tetrahydroaminobiopterin (I) reduced the formation of nitrites (a breakdown product of nitric oxide) when formation was triggered in murine NIH-3T3 by treatment with a combination of murine interferon-y (250 U/ml) and lipopolysaccharide (1 μg/ml) ("LPS"). […] In one embodiment, rat liver phenylalanine-4-hydroxylase was inhibited by 1 mM tetrahydroaminobiopterin only 30% irrespective of the tetrahydroaminobiopterin concentrations used (3-300 μM). IC50 of tetrahydroaminobiopterin (I) for sheep liver dihydropterin reductase is 20 μM, again irrespective of the tetrahydroaminobiopterin concentrations used.
NO synthase activity: NO synthase activity was measured as the formation of [2,3,4,5-^3 H]citrulline from L-[2,3,4,5-^3 H]arginine. This was conducted by the method of Mayer, et al., "Molecular mechanisms of inhibition of porcine brain nitric oxide synthase by the antinociceptive drug 7-nitro-indazole," Neuropharmacology, 33:1253-1259 (1994). Incubation mixtures (0.1 ml) contain 50 mM triethanolamine/HCl buffer, pH 7.0, 0.1 μg purified recombinant rat neuronal NO synthase (tetrahydrobiopterin-free, prepared according to the teachings of List et al., Biochem. J., 315:57-63 (1996)), the teachings of which are incorporated herein by reference., 0.1 mM L-2,3,4,5-^3 H]arginine (approx 6000 counts per minute). 0.5 mM CaCl2, 10 μg/ml calmodulin, 0.2 mM NADPH ([…], reduced form), 10 μM 6R-tetrahydrobiopterin, 0-1000 μM NO synthase inhibitor, 5 μM flavin adenine dinucleotide("FAD"), 5 μM flavin mononucleotide ("FMN"), and 0.2 mM 3-[3-chloramidopropyl)dimethylamonio]-1-propanesulfonate ("CHAPS"). After incubation for 10 minutes at 37° C., the reaction is stopped by the addition of 0.9 ml 20 mM sodium acetate buffer, pH 5.5, containing 1 mM L-citrulline. The mixture is then applied to ion exchange resin columns (Dowex AG50W-XB, Dow Chemical, Midland, Mich.), the eluate and 1 ml water for washing the column are collected. Next, 7 ml scintillation cocktail are added and the radioactivity is determined. The radioactivity detected by scintillation corresponds to the amount of L-citrulline formed in the NO synthase reaction.

[5] = target: murine inducible NOS (Mus musculus, UniProt P29477); assay: NO synthase activity, formation of tritiated citrulline from tritiated L-arginine (murine inducible); type: biochemical; settings: 10 μM tetrahydrobiopterin, read-out: IC50 (50% inhibitory concentration), inhibition of stimulation of NOSs by tetrahydrobiopterin
Procedure: as §2

[6] = tested on: murine NIH-3T3; assay: formation of nitrites triggered in murine NIH-3T3 by interferon-γ (250 U/ml) and LPS; type: cell-based
Procedure: as §2

[7] = tested on: cultivated porcine endothelial cells; assay: NOS inhibition in cultivated porcine endothelial cells; type: cell-based; settings: Sus scrofa, Endothelial cell, read-out: IC50, inhibitory effect on NOS
[8] = tested on: rat liver phenylalanine-4-hydroxylase; assay: inhibition of rat liver phenylalanine-4-hydroxylase; type: biochemical; settings: 1 mM; irrespective of the tetrahydroaminobiopterin concentrations used (3-300 μM)
Procedure: as §2

[9] = tested on: 3T3 murine fibroblasts; assay: in vitro toxicity screen in cultured 3T3 murine fibroblasts; type: cell-based; settings: 250 μM, up to 48 hours
Procedure: as §1

[10] = tested on: murine 3T3 fibroblasts; assay: nitrite formation by interferon-γ/LPS stimulated murine 3T3 fibroblasts (Example 2); type: cell-based; settings: for inhibition at 7.8 µM: conc. 7.8 μM; for inhibition at 7.8 µM / inhibition at 15.6 µM / inhibition at 31.2 µM / inhibition at 62.5 µM: 48 hours; for inhibition at 15.6 µM: conc. 15.6 μM; for inhibition at 31.2 µM: conc. 31.2 μM; for inhibition at 62.5 µM: conc. 62.5 μM
Procedure: Nitric oxide synthase is induced in 3T3 fibroblasts from mice (1×10^5 /ml) by a mixture of LPS (055:b5 from E. coli.), 1 μg/ml) and murine interferon-γ (50 U/ml). The cells were cultured with and without inhibitors for 48 hours, and nitrite was determined in culture supernatants as a measure of NO formation by the cells. The ratio of nitrite to nitrate, the second product of decomposition of NO, remains constant by treatment with the inhibitor. Nitrite determination was carried out using the Greiss Ilosvay's reagent, which was mixed with an equal volume of culture supernatant and the amount of dye formed was measured by UV absorption at 550 nm in a microplate reader.

[11] = tested on: NOSs; assay: specificity for NOSs; type: biochemical
Procedure: as §2

[12] = conc. 0.01 μM, 10 μM 6R-tetrahydrobiopterin
[13] = conc. 0.1 μM, 10 μM 6R-tetrahydrobiopterin
[14] = conc. 1.0 μM, 10 μM 6R-tetrahydrobiopterin
[15] = conc. 3.0 μM, 10 μM 6R-tetrahydrobiopterin
[16] = conc. 10 μM, 10 μM 6R-tetrahydrobiopterin
[17] = conc. 30 μM, 10 μM 6R-tetrahydrobiopterin
[18] = conc. 100 μM, 10 μM 6R-tetrahydrobiopterin
[19] = conc. 1000 μM, 10 μM 6R-tetrahydrobiopterin

Chain of rat neuronal nitric oxide synthase (P29476 whole entry): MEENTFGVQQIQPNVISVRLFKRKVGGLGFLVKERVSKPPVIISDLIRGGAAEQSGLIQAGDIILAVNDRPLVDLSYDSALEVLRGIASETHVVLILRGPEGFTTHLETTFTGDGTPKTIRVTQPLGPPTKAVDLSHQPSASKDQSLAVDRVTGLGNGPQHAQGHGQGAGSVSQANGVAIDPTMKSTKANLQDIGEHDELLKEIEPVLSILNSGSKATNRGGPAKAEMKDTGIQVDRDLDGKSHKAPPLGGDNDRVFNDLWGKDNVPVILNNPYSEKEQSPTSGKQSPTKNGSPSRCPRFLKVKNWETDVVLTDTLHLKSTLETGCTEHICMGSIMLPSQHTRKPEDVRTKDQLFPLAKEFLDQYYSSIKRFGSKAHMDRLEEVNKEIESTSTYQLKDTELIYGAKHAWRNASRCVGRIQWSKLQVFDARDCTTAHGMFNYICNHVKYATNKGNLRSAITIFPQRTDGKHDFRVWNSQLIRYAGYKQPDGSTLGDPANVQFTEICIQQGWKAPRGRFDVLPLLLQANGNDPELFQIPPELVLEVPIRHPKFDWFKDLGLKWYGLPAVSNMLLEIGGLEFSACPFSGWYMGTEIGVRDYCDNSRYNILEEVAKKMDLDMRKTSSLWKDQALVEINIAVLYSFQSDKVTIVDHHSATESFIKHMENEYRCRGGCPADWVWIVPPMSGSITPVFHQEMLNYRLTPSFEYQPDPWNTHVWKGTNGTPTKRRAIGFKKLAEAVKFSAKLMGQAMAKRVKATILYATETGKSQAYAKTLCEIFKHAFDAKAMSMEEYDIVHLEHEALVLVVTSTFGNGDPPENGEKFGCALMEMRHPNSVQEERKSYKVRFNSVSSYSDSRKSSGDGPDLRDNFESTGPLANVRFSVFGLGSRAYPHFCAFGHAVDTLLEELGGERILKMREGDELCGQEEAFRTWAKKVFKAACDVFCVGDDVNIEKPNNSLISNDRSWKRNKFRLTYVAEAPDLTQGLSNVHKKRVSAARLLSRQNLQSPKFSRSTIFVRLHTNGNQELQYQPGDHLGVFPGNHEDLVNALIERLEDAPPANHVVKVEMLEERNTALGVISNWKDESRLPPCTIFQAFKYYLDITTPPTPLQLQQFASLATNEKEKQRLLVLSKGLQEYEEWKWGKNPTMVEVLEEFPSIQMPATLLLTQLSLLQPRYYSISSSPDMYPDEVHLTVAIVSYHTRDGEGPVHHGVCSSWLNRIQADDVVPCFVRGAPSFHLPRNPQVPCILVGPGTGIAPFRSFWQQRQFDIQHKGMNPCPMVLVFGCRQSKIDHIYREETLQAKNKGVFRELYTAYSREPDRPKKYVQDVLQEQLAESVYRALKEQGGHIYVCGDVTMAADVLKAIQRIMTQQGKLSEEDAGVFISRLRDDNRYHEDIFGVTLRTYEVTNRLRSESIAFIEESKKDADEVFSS

SMILES	affinity for nitric oxide synthase relative to tetrahydrobiopterin (fold higher) [2]	affinity for nitric oxide synthase relative to tetrahydrobiopterin (fold higher) [3]	NO synthase activity [4, 12]	NO synthase activity [4, 13]	NO synthase activity [4, 14]	NO synthase activity [4, 15]	inhibition at 3 µM [4, 15]	NO synthase activity [4, 16]	NO synthase activity [4, 17]	inhibition at 30 µM [4, 17]	NO synthase activity [4, 18]	NO synthase activity [4, 19]	inhibition at 7.8 µM ([10]; Mus musculus, Fibroblast)	inhibition at 15.6 µM ([10]; Mus musculus, Fibroblast)	inhibition at 31.2 µM ([10]; Mus musculus, Fibroblast)	inhibition at 62.5 µM ([10]; Mus musculus, Fibroblast)	inhibition at 100 µM [4, 18]	other results
C[C@H](O)[C@H](O)C1CNc2nc(N)nc(N)c2N1 (stereo partly drawn)	–	–	–	–	–	–	–	–	–	–	–	–	–	–	–	–	–	toxicity in vivo [1]: no toxicity
C[C@H](O)[C@H](O)C1CNc2nc(N)nc(N)c2N1 (stereo partly drawn) [(I), 2,4-diamino-5,6,7,8-tetrahydro-6-(L-erythro-1,2-dihydroxylpropyl)pteridine]	about 20 -fold	about 2.5 -fold	279 nmol/mg/min	262 nmol/mg/min	181 nmol/mg/min	125 nmol/mg/min	58%	72 nmol/mg/min	50 nmol/mg/min	83%	35 nmol/mg/min	24 nmol/mg/min	44%	65%	77%	88%	–	IC50 ([4]; 10 μM tetrahydrobiopterin, rat neuronal NOS, read-out: IC50 (50% inhibitory concentration), inhibition of stimulation of NOSs by tetrahydrobiopterin): 1 µM; IC50 [5]: 7 µM; IC50 ([6]; Mus musculus, NIH3T3, murine interferon-γ (250 U/ml) and LPS (1 μg/ml)): 13 µM; cellular toxicity ([6]; murine NIH-3T3, nitrite formation test): without apparent cellular toxicity; IC50 [7]: 100 µM; inhibition of phenylalanine-4-hydroxylase [8]: 30%; cytotoxicity [9]: no cytotoxicity; inhibition at 7.5 µM ([10]; Mus musculus, Fibroblast, 7.5 μM): 44%; NO synthase inhibitor potency compared with (III) ([10]; compared with (III)): more potent NO synthase inhibitor; specificity for NOSs [11]: highly specific for NOSs
Nc1nc(N)c2c(n1)NCC(CO)N2 (stereo not drawn) [(III), 2,4-diamino-5,6,7,8-tetrahydro-6-hydroxymethyl pteridine, reference compound]	–	–	325 nmol/mg/min	318 nmol/mg/min	306 nmol/mg/min	304 nmol/mg/min	9%	316 nmol/mg/min	319 nmol/mg/min	4%	274 nmol/mg/min	136 nmol/mg/min	0%	8%	16%	50%	18%	inhibition at 0.01 µM [4, 12]: 3%; inhibition at 0.1 µM [4, 13]: 5%; inhibition at 1 µM [4, 14]: 8%; inhibition at 10 µM [4, 16]: 5%; inhibition at 1000 µM [4, 19]: 60%; activity in words ([10]; 7.5 μM): no activity
C[C@H](O)[C@H](O)C1=Nc2c(N)nc(N)nc2NC1 [(IV), 2,4-diamino-7,8-dihydro-6-(L-erythro-1,2-dihydroxylpropyl)pteridine]	about 20 -fold	about 2.5 -fold	294 nmol/mg/min	283 nmol/mg/min	242 nmol/mg/min	–	–	110 nmol/mg/min	–	–	48 nmol/mg/min	25 nmol/mg/min	–	–	–	–	82%	–
